PubChem BioAssay AID1963870 (Molecular Pharmacology Branch, DTP, NCI, 2024)
pIC50: −log10 of the molar value. Where “and” joins values, the source holds several entries; their conditions need not be identical. Equal values may be shown once.

Test system: 292921-168-R-J2-PDC KRAS tumor spheroid viability
Assay: Anticancer human tumor 292921-168-R-J2-PDC patient-derived pancreatic carcinoma cell line growth inhibition [KRAS2]
Conditions: spheroids with HUVEC and MSC; for pIC50: curve of first compound; for viability, T/C: stronger effect = lower value; active = viability on the fitted dose curve at most 10% of control; inactive = the rest
Procedure, shortened: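 Combination screen of spheroid viability in tumor-cell co-cultures with endothelial (HUVEC) and mesenchymal stem cell stroma. Each agent was tested in half-log dilutions, topping at clinical Cmax or at 10 microM without a known Cmax.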

[1] = second compound 0.0316 µM, first compound 0.000316 µM
[2] = second compound 0.0316 µM, first compound 0.001 µM
[3] = second compound 0.0316 µM, first compound 0.00316 µM
[4] = second compound 0.0316 µM, first compound 0.01 µM
[5] = second compound 0.0316 µM, first compound 0.0316 µM
[6] = second compound 0.1 µM, first compound 0.000316 µM
[7] = second compound 0.1 µM, first compound 0.001 µM
[8] = second compound 0.1 µM, first compound 0.00316 µM
[9] = second compound 0.1 µM, first compound 0.01 µM
[10] = second compound 0.1 µM, first compound 0.0316 µM
[11] = second compound 0.1 µM, first compound 0.1 µM
[12] = second compound 0.316 µM, first compound 0.000316 µM
[13] = second compound 0.316 µM, first compound 0.001 µM
[14] = second compound 0.316 µM, first compound 0.00316 µM
[15] = second compound 0.316 µM, first compound 0.01 µM
[16] = second compound 0.316 µM, first compound 0.0316 µM
[17] = second compound 0.316 µM, first compound 0.1 µM
[18] = second compound 1 µM, first compound 0.000316 µM
[19] = second compound 1 µM, first compound 0.001 µM
[20] = second compound 1 µM, first compound 0.00316 µM
[21] = second compound 1 µM, first compound 0.01 µM
[22] = second compound 1 µM, first compound 0.0316 µM
[23] = second compound 1 µM, first compound 0.1 µM
[24] = second compound 3.16 µM, first compound 0.000316 µM
[25] = second compound 3.16 µM, first compound 0.001 µM
[26] = second compound 3.16 µM, first compound 0.00316 µM
[27] = second compound 3.16 µM, first compound 0.01 µM
[28] = second compound 3.16 µM, first compound 0.0316 µM
[29] = second compound 3.16 µM, first compound 0.1 µM
[30] = second compound 0.1 µM, first compound 0.316 µM
[31] = second compound 0.1 µM, first compound 1 µM
[32] = second compound 0.1 µM, first compound 3.16 µM
[33] = second compound 0.1 µM, first compound 10 µM
[34] = second compound 0.316 µM, first compound 0.316 µM
[35] = second compound 0.316 µM, first compound 1 µM
[36] = second compound 0.316 µM, first compound 3.16 µM
[37] = second compound 0.316 µM, first compound 10 µM
[38] = second compound 1 µM, first compound 0.316 µM
[39] = second compound 1 µM, first compound 1 µM
[40] = second compound 1 µM, first compound 3.16 µM
[41] = second compound 1 µM, first compound 10 µM
[42] = second compound 3.16 µM, first compound 0.316 µM
[43] = second compound 3.16 µM, first compound 1 µM
[44] = second compound 3.16 µM, first compound 3.16 µM
[45] = second compound 3.16 µM, first compound 10 µM
[46] = second compound 10 µM, first compound 0.0316 µM
[47] = second compound 10 µM, first compound 0.1 µM
[48] = second compound 10 µM, first compound 0.316 µM
[49] = second compound 10 µM, first compound 1 µM
[50] = second compound 10 µM, first compound 3.16 µM
[51] = second compound 10 µM, first compound 10 µM
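Also: drug exposure lasted seven days after spheroids formed for three days.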
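For viability, T/C in this document: percent of DMSO vehicle control viability which is 100%.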

Cn1ncnc1[C@H]1c2n[nH]c(=O)c3cc(F)cc(c23)N[C@@H]1c1ccc(F)cc1 + C=CC(=O)N1CCN(c2nc(OCC3CCCN3C)nc3c2CCN(c2cccc4cccc(C)c24)C3)CC1CC#N
7.09: pIC50 (second compound 0.316 µM)
< 7.00: pIC50 (second compound 0.0316 µM) | pIC50 (second compound 0.1 µM)
> 9.50: pIC50 (second compound 1 µM) | pIC50 (second compound 3.16 µM)
active: viability, T/C [24] 0.3% | viability, T/C [25] 0.12% | viability, T/C [26] 0.12% | viability, T/C [27] 0.11% | viability, T/C [28] 0.13% | viability, T/C [29] 0.17%
inactive: viability, T/C [1] 99.5% | viability, T/C [2] 93% | viability, T/C [3] 93.2% | viability, T/C [4] 93.6% | viability, T/C [5] 81.7% | viability, T/C (second compound 0.0316 µM, first compound 0.1 µM) 67.3% | viability, T/C [6] 96.7% | viability, T/C [7] 93.5% | viability, T/C [8] 91.7% | viability, T/C [9] 83.6% | viability, T/C [10] 77.6% | viability, T/C [11] 63.7% | viability, T/C [12] 88.1% | viability, T/C [13] 82.1% | viability, T/C [14] 72.9% | viability, T/C [15] 74.9% | viability, T/C [16] 65% | viability, T/C [17] 46.4% | viability, T/C [18] 42.1% | viability, T/C [19] 42.9% | viability, T/C [20] 37.1% | viability, T/C [21] 32.5% | viability, T/C [22] 29.8% | viability, T/C [23] 28.3%

CC(=O)Nc1cccc(-n2c(=O)n(C3CC3)c(=O)c3c(Nc4ccc(I)cc4F)n(C)c(=O)c(C)c32)c1 + C=CC(=O)N1CCN(c2nc(OCC3CCCN3C)nc3c2CCN(c2cccc4cccc(C)c24)C3)CC1CC#N
9.84: pIC50 (second compound 0.316 µM)
> 10.00: pIC50 (second compound 1 µM) | pIC50 (second compound 3.16 µM)
9.62: pIC50 (second compound 0.1 µM)
inactive: viability, T/C (second compound 0.0316 µM, first compound 0.0001 µM) 78.2% | viability, T/C [1] 46.6% | viability, T/C [2] 27.2% | viability, T/C [3] 18.6% | viability, T/C [4] 11.9% | viability, T/C (second compound 0.1 µM, first compound 0.0001 µM) 63.3% | viability, T/C [6] 45.9% | viability, T/C [7] 29.1% | viability, T/C [8] 17.6% | viability, T/C [9] 12.4% | viability, T/C (second compound 0.316 µM, first compound 0.0001 µM) 56.5% | viability, T/C [12] 36.5% | viability, T/C [13] 23% | viability, T/C [14] 13.5% | viability, T/C (second compound 1 µM, first compound 0.0001 µM) 42.7% | viability, T/C [18] 21.9% | viability, T/C [19] 13.3%
9.55: pIC50 (second compound 0.0316 µM)
active: viability, T/C [5] 8.52% | viability, T/C [10] 7.9% | viability, T/C [15] 10.3% | viability, T/C [16] 7.06% | viability, T/C [20] 9.17% | viability, T/C [21] 6.87% | viability, T/C [22] 5.25% | viability, T/C (second compound 3.16 µM, first compound 0.0001 µM) 0.18% | viability, T/C [24] 0.2% | viability, T/C [25] 0.11% | viability, T/C [26] 0.27% | viability, T/C [27] 0.11% | viability, T/C [28] 0.17%

CC1(C)CCC(CN2CCN(c3ccc(C(=O)NS(=O)(=O)c4ccc(NCC5CCOCC5)c([N+](=O)[O-])c4)c(Oc4cnc5[nH]ccc5c4)c3)CC2)=C(c2ccc(Cl)cc2)C1 + CC1OCC2(CCN(c3cnc(Sc4ccnc(N)c4Cl)c(N)n3)CC2)C1N
5.84: pIC50 (second compound 0.316 µM)
active: viability, T/C [37] 7.43% | viability, T/C [41] 7.41% | viability, T/C [45] 7.38% | viability, T/C [51] 1.65%
> 7.50: pIC50 (second compound 1 µM) | pIC50 (second compound 3.16 µM) | pIC50 (second compound 10 µM)
inactive: viability, T/C [10] 77.7% | viability, T/C [11] 81.6% | viability, T/C [30] 71.8% | viability, T/C [31] 69.8% | viability, T/C [32] 21.9% | viability, T/C [33] 11.7% | viability, T/C [16] 59.7% | viability, T/C [17] 65.9% | viability, T/C [34] 64.2% | viability, T/C [35] 58.9% | viability, T/C [36] 29.6% | viability, T/C [22] 46.5% | viability, T/C [23] 51.4% | viability, T/C [38] 46.1% | viability, T/C [39] 42.9% | viability, T/C [40] 17.8% | viability, T/C [28] 38.8% | viability, T/C [29] 40.2% | viability, T/C [42] 37.6% | viability, T/C [43] 39% | viability, T/C [44] 14.1% | viability, T/C [46] 33.3% | viability, T/C [47] 32.8% | viability, T/C [48] 33.2% | viability, T/C [49] 34.7% | viability, T/C [50] 13.1%
5.79: pIC50 (second compound 0.1 µM)

COc1cc2nccc(Oc3ccc(NC(=O)C4(C(=O)Nc5ccc(F)cc5)CC4)cc3)c2cc1OC
inactive: viability, T/C (compound 0.0316 µM) 104% (3×) and 112% and 103% | viability, T/C (compound 0.1 µM) 99.3% [middle of 5 runs] | viability, T/C (compound 0.316 µM) 96.6% [middle of 5 runs] | viability, T/C (compound 3.16 µM) 33.9% [middle of 5 runs] | viability, T/C (compound 10 µM) 19.6% [middle of 5 runs]
2.1 µM [middle of 5 runs]: IC50 (curve of compound)

CC1(C)CCC(CN2CCN(c3ccc(C(=O)NS(=O)(=O)c4ccc(NCC5CCOCC5)c([N+](=O)[O-])c4)c(Oc4cnc5[nH]ccc5c4)c3)CC2)=C(c2ccc(Cl)cc2)C1 + COc1cc2nc(C)nc(NC(C)c3cc(N)cc(C(F)(F)F)c3)c2cc1OC1CCOC1
> 7.50: pIC50 (second compound 10 µM)
5.86: pIC50 (second compound 3.16 µM)
active: viability, T/C [37] 8.02% | viability, T/C [41] 8.25% | viability, T/C [45] 8.28% | viability, T/C [51] 6.32%
5.66: pIC50 (second compound 0.316 µM)
5.68: pIC50 (second compound 0.1 µM)
inactive: viability, T/C [10] 105% | viability, T/C [11] 94.4% | viability, T/C [30] 91.9% | viability, T/C [31] 93.4% | viability, T/C [32] 25.6% | viability, T/C [33] 14.3% | viability, T/C [16] 88.9% | viability, T/C [17] 81% | viability, T/C [34] 88.9% | viability, T/C [35] 91.6% | viability, T/C [36] 32.1% | viability, T/C [22] 84.1% | viability, T/C [23] 80.5% | viability, T/C [38] 83% | viability, T/C [39] 85.8% | viability, T/C [40] 19.5% | viability, T/C [28] 70.8% | viability, T/C [29] 70.6% | viability, T/C [42] 73.2% | viability, T/C [43] 63.4% | viability, T/C [44] 15.6% | viability, T/C [46] 36.8% | viability, T/C [47] 31% | viability, T/C [48] 33.6% | viability, T/C [49] 27.3% | viability, T/C [50] 7.17%
5.74: pIC50 (second compound 1 µM)
